Measurements from PubChem BioAssay AID330 (DTP/NCI, 2004).
Several values for one entry are separate records, joined by “and”; a condition that tells them apart may be missing. Identical values can stand only once. Toxic doses and inconclusive results are not listed. The calls were made as follows: active = survival T/C of 150% or more; inactive = T/C below 125% in these data.

System: P388 leukemia ip, CD2F1 mice, survival T/C
Assay: NCI In Vivo Anticancer Drug Screen. Data for tumor model P388 Leukemia (intraperitoneal) in CD2F1 (CDF1) mice
Settings: endpoint: median survival time, higher = longer survival
Method in brief: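 Mice carrying the transplanted tumor received test compound or vehicle. Survival was recorded in each group, and the value is the treated-group measurement divided by that of the vehicle-treated control group.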

[1] = dose: 60.0 mg/kg/injection, schedule: Q01DX005 (ip), vehicle: saline with Tween-80
[2] = dose: 120.0 mg/kg/injection, schedule: Q01DX005 (ip), vehicle: saline with Tween-80
[3] = dose: 240.0 mg/kg/injection, schedule: Q01DX005 (ip), vehicle: saline with Tween-80
[4] = dose: 50.0 mg/kg/injection, schedule: Q01DX005 (ip), vehicle: saline
[5] = dose: 100.0 mg/kg/injection, schedule: Q01DX005 (ip), vehicle: saline
[6] = dose: 200.0 mg/kg/injection, schedule: Q01DX005 (ip), vehicle: saline
[7] = dose: 50.0 mg/kg/injection, schedule: Q01DX009 (ip), vehicle: Klucel (hydroxypropylcellulose) (HPC)
[8] = dose: 100.0 mg/kg/injection, schedule: Q01DX009 (ip), vehicle: Klucel (hydroxypropylcellulose) (HPC)
[9] = dose: 100.0 mg/kg/injection, schedule: Q01DX009 (ip), vehicle: saline with Tween-80
[10] = dose: 200.0 mg/kg/injection, schedule: Q01DX009 (ip), vehicle: saline with Tween-80
[11] = dose: 400.0 mg/kg/injection, schedule: Q01DX009 (ip), vehicle: saline with Tween-80
[12] = dose: 50.0 mg/kg/injection, schedule: Q01DX009 (ip), vehicle: saline with Tween-80
[13] = dose: 25.0 mg/kg/injection, schedule: Q01DX005 (ip), vehicle: Klucel (hydroxypropylcellulose) (HPC)

Measured: T/C

O=C(N/C(=C\c1cccc([N+](=O)[O-])c1)c1nc2ccccc2s1)c1ccccc1
inactive: [1] 107 % of control | [2] 106 % of control | [3] 110 % of control

CN=C(NCCSCc1ccc2ccccc2n1)NCc1ccccc1
inactive: dose: 12.5 mg/kg/injection, schedule: Q01DX005 (ip), vehicle: saline 98 % of control | dose: 25.0 mg/kg/injection, schedule: Q01DX005 (ip), vehicle: saline 109 % of control | [4] 101 % of control

O=C(O)C1Cc2c([nH]c3ccccc23)C(CO)N1 (stereo unspecified)
inactive: dose: 25.0 mg/kg/injection, schedule: Q01DX009 (ip), vehicle: suspension in saline 107 % of control | dose: 50.0 mg/kg/injection, schedule: Q01DX009 (ip), vehicle: suspension in saline 104 % of control

CCOC(=O)NN(C(=O)OCC)C1CCN=C1C(=O)OC (stereo unspecified)
inactive: [4] 98 % of control | [5] 88 % of control | [6] 98 % of control

Cc1coc2c1C(OC(=O)C(C)C)C1(C)C(C)CCC(O)C1C2=O (stereo unspecified)
inactive: dose: 1.56 mg/kg/injection, schedule: Q01DX009 (ip), vehicle: saline with Tween-80 100 % of control | dose: 3.13 mg/kg/injection, schedule: Q01DX009 (ip), vehicle: saline with Tween-80 96 % of control | dose: 6.25 mg/kg/injection, schedule: Q01DX009 (ip), vehicle: saline with Tween-80 93 % of control | dose: 12.5 mg/kg/injection, schedule: Q01DX009 (ip), vehicle: Klucel (hydroxypropylcellulose) (HPC) 94 % of control | dose: 12.5 mg/kg/injection, schedule: Q01DX009 (ip), vehicle: saline with Tween-80 109 % of control | [7] 97 % of control | [8] 114 % of control

C=C1C(C)C2C(Cc3ccccc3)NC(=O)C23OC(=O)/C=C\CC(=O)CCC(C)C/C=C/C3C1O (stereo unspecified)
inactive: dose: 5.0 mg/kg/injection, schedule: Q01DX009 (ip), vehicle: Klucel (hydroxypropylcellulose) (HPC) 110 % of control | dose: 10.0 mg/kg/injection, schedule: Q01DX009 (ip), vehicle: Klucel (hydroxypropylcellulose) (HPC) 118 % of control

C[C@]12CC[C@H](O)C[C@@H]1CC[C@@H]1[C@@H]2CC[C@]2(C)c3nc4ccccc4c(C(=O)O)c3C[C@@H]12
inactive: dose: 12.5 mg/kg/injection, schedule: Q01DX005 (ip), vehicle: saline with Tween-80 101 % of control | dose: 25.0 mg/kg/injection, schedule: Q01DX005 (ip), vehicle: saline with Tween-80 100 % of control | dose: 50.0 mg/kg/injection, schedule: Q01DX005 (ip), vehicle: saline with Tween-80 86 % of control and 94 % of control | dose: 200.0 mg/kg/injection, schedule: Q01DX005 (ip), vehicle: saline with Tween-80 93 % of control

CCn1c(Cl)c(/C=N\Nc2cccc([N+](=O)[O-])c2)c2ccccc21
inactive: dose: 25.0 mg/kg/injection, schedule: Q01DX001 (ip), vehicle: Klucel (hydroxypropylcellulose) (HPC) 93 % of control | dose: 50.0 mg/kg/injection, schedule: Q01DX001 (ip), vehicle: Klucel (hydroxypropylcellulose) (HPC) 87 % of control | dose: 100.0 mg/kg/injection, schedule: Q01DX001 (ip), vehicle: Klucel (hydroxypropylcellulose) (HPC) 86 % of control and 93 % of control

NC=O
inactive: [9] 109 % of control | dose: 100.0 mg/kg/injection, schedule: Q04DX003 (ip), vehicle: saline 100 % of control | [10] 118 % of control | dose: 200.0 mg/kg/injection, schedule: Q04DX003 (ip), vehicle: saline 100 % of control | [11] 118 % of control | dose: 400.0 mg/kg/injection, schedule: Q04DX003 (ip), vehicle: saline 118 % of control

FC(F)(F)C1(C(F)(F)F)O[Te]2(OC(C(F)(F)F)(C(F)(F)F)c3ccccc32)c2ccccc21
inactive: dose: 80.0 mg/kg/injection, schedule: Q04DX002 (ip), vehicle: Klucel (hydroxypropylcellulose) (HPC) 96 % of control | dose: 160.0 mg/kg/injection, schedule: Q04DX002 (ip), vehicle: Klucel (hydroxypropylcellulose) (HPC) 102 % of control | dose: 320.0 mg/kg/injection, schedule: Q04DX002 (ip), vehicle: Klucel (hydroxypropylcellulose) (HPC) 105 % of control

CCOC(=O)CNC(=O)OC(C)(C)C
inactive: [1] 103 % of control | [2] 100 % of control | [3] 108 % of control

CC(NC(=O)OCc1ccccc1)C(=O)Oc1cc(Cl)c(Cl)cc1Cl (stereo unspecified)
inactive: [12] 109 % of control | [9] 104 % of control | [10] 107 % of control

CNS(=O)(=O)c1ccc2c(c1)nc(SC)n2C
inactive: [9] 100 % of control | [10] 100 % of control | [11] 95 % of control

CN(C)C(=O)N1CCc2ccc([N+](=O)[O-])cc21
inactive: [7] 104 % of control | [8] 100 % of control | dose: 200.0 mg/kg/injection, schedule: Q01DX009 (ip), vehicle: Klucel (hydroxypropylcellulose) (HPC) 98 % of control

CC(=O)OCCS(=O)Cc1ccccc1 (stereo unspecified)
inactive: dose: 60.0 mg/kg/injection, schedule: Q01DX005 (ip), vehicle: saline 92 % of control | dose: 120.0 mg/kg/injection, schedule: Q01DX005 (ip), vehicle: saline 94 % of control | dose: 240.0 mg/kg/injection, schedule: Q01DX005 (ip), vehicle: saline 100 % of control

O=c1c(Br)cn(Cc2ccccc2)cc1Br
inactive: [4] 92 % of control | [5] 95 % of control | [6] 90 % of control

CCCNCCNc1ccc(NCCNCCC)c2c1C(=O)c1ccccc1C2=O
inactive: dose: 4.0 mg/kg/injection, schedule: Q01DX009 (ip), vehicle: acid diluted with saline 104 % of control | dose: 8.0 mg/kg/injection, schedule: Q01DX009 (ip), vehicle: acid diluted with saline 112 % of control | dose: 12.5 mg/kg/injection, schedule: Q01DX009 (ip), vehicle: distilled water + Tween-80 120 % of control | dose: 16.0 mg/kg/injection, schedule: Q01DX009 (ip), vehicle: acid diluted with saline 120 % of control | dose: 25.0 mg/kg/injection, schedule: Q01DX009 (ip), vehicle: distilled water + Tween-80 118 % of control | dose: 32.0 mg/kg/injection, schedule: Q01DX009 (ip), vehicle: acid diluted with saline 112 % of control | dose: 100.0 mg/kg/injection, schedule: Q01DX009 (ip), vehicle: distilled water + Tween-80 124 % of control

Cc1cc([N+](=O)[O-])c(C)c(Br)c1C
inactive: [12] 90 % of control | [9] 92 % of control | [10] 99 % of control

COc1cc2c(cc1OC)[C@@H]1C(=O)c3ccc4c(c3O[C@@H]1CO2)C[C@H](C(C)C)O4
inactive: dose: 6.25 mg/kg/injection, schedule: Q01DX005 (ip), vehicle: Klucel (hydroxypropylcellulose) (HPC) 109 % of control | dose: 12.5 mg/kg/injection, schedule: Q01DX005 (ip), vehicle: Klucel (hydroxypropylcellulose) (HPC) 121 % of control and 123 % of control and 124 % of control | [13] 119 % of control

Cn1ccc(C#N)c(C#N)c1=O
inactive: [13] 97 % of control | dose: 50.0 mg/kg/injection, schedule: Q01DX005 (ip), vehicle: Klucel (hydroxypropylcellulose) (HPC) 99 % of control | dose: 100.0 mg/kg/injection, schedule: Q01DX005 (ip), vehicle: Klucel (hydroxypropylcellulose) (HPC) 106 % of control | dose: 200.0 mg/kg/injection, schedule: Q01DX005 (ip), vehicle: Klucel (hydroxypropylcellulose) (HPC) 97 % of control

COCCn1c(N)c(C(=S)Nc2ccccc2)c(=O)[nH]c1=O
inactive: dose: 50.0 mg/kg/injection, schedule: Q01DX009 (ip), vehicle: saline 101 % of control | dose: 100.0 mg/kg/injection, schedule: Q01DX009 (ip), vehicle: saline 104 % of control | dose: 200.0 mg/kg/injection, schedule: Q01DX009 (ip), vehicle: saline 105 % of control

Clc1cc(=Nc2ccccc2)n2ccccc2n1
inactive: dose: 60.0 mg/kg/injection, schedule: Q01DX005 (ip), vehicle: Klucel (hydroxypropylcellulose) (HPC) 96 % of control | dose: 120.0 mg/kg/injection, schedule: Q01DX005 (ip), vehicle: Klucel (hydroxypropylcellulose) (HPC) 99 % of control | dose: 240.0 mg/kg/injection, schedule: Q01DX005 (ip), vehicle: Klucel (hydroxypropylcellulose) (HPC) 97 % of control

CC12CCC(O)C=C1CCC1C2CCC2(C)C(C3=CC(=O)OC3)CCC12O (stereo unspecified)
inactive: dose: 3.1 micrograms/kg/injection, schedule: Q01DX009 (ip), vehicle: saline with Tween-80 101 % of control | dose: 6.2 micrograms/kg/injection, schedule: Q01DX009 (ip), vehicle: saline with Tween-80 100 % of control | dose: 12.5 micrograms/kg/injection, schedule: Q01DX009 (ip), vehicle: saline with Tween-80 96 % of control | dose: 25.0 micrograms/kg/injection, schedule: Q01DX009 (ip), vehicle: saline with Tween-80 102 % of control
